pEC50: −log10 of the molar value. Where a name gives a salt, the structure may show the parent alone. Read-outs that look alike come from different tables or passages of the source. Square brackets hold non-standard residues; d marks the D form. Peptide text beside a SMILES is read from it. * marks the point of attachment. Myristoyl = CCCCCCCCCCCCCC(=O)*; Nle = CCCC[C@H](N)C(=O)O
How the values were obtained:
NBM CD34+ cells = assay: Methylcellulose colony formation of normal CD34+ marrow cells; assay type: cell-based, human; conditions: NBM CD34+ cells (normal CD34+ myeloid progenitors)
Description: The Ph^1 K562, the BCR/ABL-expressing 32Dc13 and BaF3 cells, and their derivative lines were maintained in culture in IMDM/10% FBS/2 mM L-glutamine. The SET shRNA-, HA-PP2Ac-, and HA-PP2Ac/FLAG-SET-expressing cells were generated by retroviral infection followed by either antibiotic-mediated selection or FACS-mediated sorting of the GFP+ (green fluorescent protein) cells as described (Perrotti et al., (2002), Nat. Genet. 30:48-58). The following cells were kind gifts: 32D-p210^Y253H (B. Calabretta; TJU, Philadelphia, Pa.); BaF3-p210^T315I (B. Druker; OHSU, Portland, Oreg.); TonB210.1 (G. Daley; Harvard University, Cambridge, Mass.). Frozen samples of CD34+ bone marrow cells (NBM) from different healthy donors were from AllCells LLC (Berkeley, Calif.). […] Erythroid differentiation of K562 and derivative cell lines was assessed by o-Dianisidine (Fast Blue B; Sigma) staining of methylcellulose colonies. […]
Methylcellulose colony formation assays were carried out by plating 103 or 5×10^4 cells from BCR/ABL cell lines or primary human CML and mouse BMC, respectively, in 0.9% MethoCult H4230 (Stem Cell Technologies Inc.). […] Colonies (>125 μm) from cell lines and primary cells were scored 7 and 15 days later, respectively.

PP2A = target: T1, PP2A (Mus musculus, UniProt P63330); assay: PP2A IP phosphatase assay on lysates of treated cells; assay type: cell-based
T1 construct: endogenous in cells; host or cells: 32Dc13, 32D-BCR/ABL, 32D-BCR/ABL-T315I, 32D-p210 Y253H, BaF3-p210 T315I, K562, primary CML-BC CD34+ and NBM CD34+ cells
Description: PP2A phosphatase assays were carried out using the PP2A IP phosphatase assay kit (Upstate). Briefly, protein lysates (50 μg) in 100 μl of 20 mM HEPES (pH 7.0)/100 mM NaCl, 5 μg of PP2Ac antibody (Upstate), and 25 μl of Protein A-agarose were added to 400 μl of 50 mM Tris (pH 7.0)/100 mM CaCl2, and IPs were carried out at 4° C. for 2 hr. IPs were washed and used in the phosphatase reaction according to the manufacturer's protocol. Specificity of the PP2A assay was assessed by titration with okadaic acid and by ascertaining the absence of PP1a in the PP2A immunoprecipitates (Figure S2A). As internal control, the amount of immunoprecipitated PP2A was also monitored by anti-PP2Ac Western blots (Figure S2B).

[1] = tested on: 32D-BCR/ABL (T315I) cells; conditions: for treated mice BCR/ABL negative and alive 18 weeks after cell injection: after 4 weeks from restarting therapy
[2] = i.p.; cited from earlier work
BCR/ABL = assay: Western blot of BCR/ABL activity (phosphotyrosine) and expression; assay type: cell-based; conditions: for pEC50: 18-24 hr, read-out: EC50 of downregulation of BCR/ABL; for BCR/ABL activity and expression: HA-PP2Ac-transduced 32D-BCR/ABL cells, okadaic acid 0.25 nM, 1 hr
Description: Cells (10^7) were lysed in 100 μl of RIPA buffer (150 mM NaCl, 1% NP-40, 0.1% SDS, 50 mM Tris [pH 8.0]) supplemented with 1 mM PMSF, 25 μg/ml aprotinin, 10 μg/ml leupeptin, 100 μg/ml pepstatin A, 5 mM benzamidine, 1 mM Na3VO4, 50 mM NaF, 10 mM β-glycerol-phosphate. After incubation on ice (30 min), lysates were clarified (12,000×g, 15 min, 4° C.), denatured, and subjected to SDS-PAGE and Western blot (Iervolino et al., 2002). The antibodies used were goat polyclonal anti-SET(I2PP2A), -pp32(I1PP2A), and -hnRNP A1 and rabbit polyclonal anti-SHP-1 (Santa Cruz Biotechnology); monoclonal anti-Abl (Ab-3), -c-myc (Ab-2), -phosphotyrosine PY20 (Ab-4), and -pBAD^S112 (Ab-1) (EMD); monoclonal anti-hnRNP A1 (9H10) (G. Dreyfuss, University of Pennsylvania, Philadelphia, Pa.); monoclonal anti-GRB2 and -Rb (BD TransLab Inc.); monoclonal anti-HA (Covance); monoclonal anti-PP2Ac, clone 1D6 (Upstate Inc.); monoclonal anti-FLAG, clone M2 (Sigma); monoclonal anti-pERK^T202/Y204 and rabbit polyclonal anti-pAKT^T308, pSTAT5^Y694, -pJak2^Y1007/1008, -Jak2, -BAD, -Akt, and -ERK1/2 (Cell Signaling Technology Inc.); monoclonal anti-STATS (Invitrogen); rabbit monoclonal anti-pPP2A^Y307 (Epitomics); rabbit polyclonal anti-PR65/A (Calbiochem). IPs were carried out in 20 mM HEPES (pH 7.0), 150 mM NaCl, and 0.2% NP-40 supplemented with protease and phosphatase inhibitors. Lysates were precleared and immunoprecipitated with Ab-coated beads for 3 hr at 4° C. After washings, IPs were subjected to SDS-PAGE and Western blot.

[3] = tested on: imatinib-sensitive and -resistant BCR/ABL+ cell lines; assay: Methylcellulose colony formation of BCR/ABL cell lines; assay type: cell-based
Description: Methylcellulose colony formation assays were carried out by plating 103 or 5×10^4 cells from BCR/ABL cell lines or primary human CML and mouse BMC, respectively, in 0.9% MethoCult H4230 (Stem Cell Technologies Inc.). Where indicated, cells were plated in the presence of rhIL-3 (100 ng/ml) or rhG-CSF (25 ng/ml). Colonies (>125 μm) from cell lines and primary cells were scored 7 and 15 days later, respectively.

[4] = tested on: BCR/ABL-transduced wild-type and SHP-1-deficient CD34+ mouse marrow cells; assay: Clonogenic assay of BCR/ABL-transduced mouse CD34+ marrow cells; assay type: cell-based; conditions: forskolin 40 μM
Description: Normal murine hematopoietic marrow cells were obtained from the femurs of wild-type and SHP-1-deficient “viable moth eaten” mice (The Jackson Laboratory). After hypotonic lysis and Ficoll separation, cells were used for the isolation of the CD34+/lin− fraction (Miltenyi Biotech). […] Pear, University of Pennsylvania, Philadelphia, Pa.). GFP+ (Iervolino et al., 2002) wild-type and SHP-1−/− CD34+ cells (10^6) were treated or not with forskolin (40 μM; 48 hr) and used in clonogenic assay or processed for Western blot. Where indicated, cells were treated with the following: […] Methylcellulose colony formation assays were carried out by plating 103 or 5×10^4 cells from BCR/ABL cell lines or primary human CML and mouse BMC, respectively, in 0.9% MethoCult H4230 (Stem Cell Technologies Inc.). Where indicated, cells were plated in the presence of rhIL-3 (100 ng/ml) or rhG-CSF (25 ng/ml).

32D-BCR/ABL cells = conditions: for mice still alive: 15 weeks postinjection
[5] = tested on: BCR/ABL+ cell lines and primary CML-BC CD34+ cells; assay: Growth and apoptosis (annexin V) in liquid culture of BCR/ABL+ cells; assay type: cell-based; conditions: after 48 hr of forskolin treatment
Akt = assay: Western blot of phosphorylated and total Akt; assay type: cell-based; conditions: okadaic acid (0.25 nM) added to FTY720
[6] = BCR/ABL+ cell lines and CML-BC CD34+ marrow blasts, exposure 18-24 hr, forskolin 40 μM
[7] = PP2A-expressing 32D-BCR/ABL cells, 25 μM, 8 hr

For `C=C[C@@]1(C)CC(=O)[C@@H]2[C@@]3(C)CCCC(C)(C)[C@@H]3[C@H](O)[C@H](OC(C)=O)[C@@]2(C)O1` [1,9-dideoxy-forskolin], the “decrease in IL-3-dependent clonogenicity / cytokine-driven colony formation” value (NBM CD34+ cells) was ≤ 15%, the PP2A activity (PP2A; [6]) was “enhanced” and the toxic side effects ([1]; 8 mg/kg/week i.p., 18 weeks after cell injection) was “no signs of toxic side effects”. For the same compound, the “survival and BCR/ABL status (nested RT-PCR, peripheral blood)” value ([1]; 8 mg/kg/week i.p., after 4 weeks of treatment) was “all alive and BCR/ABL negative”, the “treated mice BCR/ABL negative and alive 18 weeks after cell injection” value ([1]; of cell-injected mice) was 50% and the “treated mice BCR/ABL negative and alive 18 weeks after cell injection” value ([1]; of treated mice) was 100%. For the same compound, the mice alive ([1]; after 7 weeks of treatment) was 70%, the “remaining mice tested BCR/ABL+” value ([1]; after suspension of treatment) was 50% and the “mice relapsed and died of acute leukemia-like disease” value ([1]; within 4 weeks from the end of treatment) was 20%. The LD50 [2] was 68 mg/kg, the BCR/ABL phosphorylation (BCR/ABL; [6]) was “abolished” and the pEC50 (BCR/ABL; imatinib-resistant cells) was 4.60. It also gave a pEC50 (BCR/ABL; imatinib-sensitive cells) of 4.74.
For `CCCC[C@@H](C=O)NC(=O)[C@H](CC(C)C)NC(=O)[C@H](CC(C)C)NC(C)=O` [ALLN] (Ac-Leu-Leu-[Nle]-aldehyde), the BCR/ABL expression (BCR/ABL; [7]) was “restored” and the “PP2A-induced BCR/ABL tyrosine dephosphorylation” value (BCR/ABL; [7]) was “did not prevent”.
In the case of `COC[C@@H]([C@H](O)[C@H](O)C(=O)NCC[C@H](C)c1nc(/C=C/C[C@@H]2O[C@]3(C[C@@H](O)[C@@H]2C)O[C@H]([C@H](C[C@H](O)[C@H](C)[C@H](O)[C@H](C)/C=C(C)/C(C)=C/C=C/C(C)=C\C#N)OC)[C@H](OP(=O)(O)O)C3(C)C)co1)N(C)C` [calyculin A], the “BCR/ABL activity and expression” value (BCR/ABL) was “restored”.
For `C=C[C@@]1(C)CC(=O)[C@]2(O)[C@@]3(C)[C@@H](O)CCC(C)(C)[C@@H]3[C@H](O)[C@H](OC(C)=O)[C@@]2(C)O1` [forskolin], the “inhibition of clonogenic potential (average)” value [3] is given as 75%, the “decrease of clonogenic potential” value [4] is given as ~70% and the LD50 [2] is given as 67 mg/kg. For the same compound, the pEC50 (BCR/ABL; imatinib-resistant cells) was 4.60, the pEC50 (BCR/ABL; imatinib-sensitive cells) was 4.74 and the mice still alive (32D-BCR/ABL cells; control mice that received only forskolin) was 100%. The mice still alive (32D-BCR/ABL cells; forskolin-treated cell-injected mice) was 40%, the median survival (32D-BCR/ABL cells; forskolin-treated mice injected with 32D-BCR/ABL cells) was 8 weeks and the “percentage of apoptosis (annexin V+ cells)” value ([5]; BCR/ABL+ cell lines) was 80%. The “percentage of apoptosis (annexin V+ cells)” value ([5]; primary CML-BC cells) was 95%.
In the case of `Cc1ccc(NC(=O)c2ccc(CN3CCN(C)CC3)cc2)cc1Nc1nccc(-c2cccnc2)n1` [imatinib, imatinib mesylate], the PP2A activity (PP2A; 32D-BCR/ABL cells, 1 μM, 24 hr) was “restored to normal levels” and the PP2A activity (PP2A; imatinib-resistant BaF3p210 T315I cells) was “did not rescue”.
In the case of `C=C1[C@@H](O)[C@@H]2O[C@]3(CC[C@H](/C=C/[C@@H](C)[C@@H]4CC(C)=C[C@@]5(O[C@H](C[C@@](C)(O)C(=O)O)CC[C@H]5O)O4)O3)CC[C@H]2O[C@@H]1[C@@H](O)C[C@H](C)[C@H]1O[C@@]2(CCCCO2)CC[C@H]1C` [okadaic acid], the “apoptosis and effect on PP2A targets (e.g. Akt dephosphorylation) observed with FTY720” value (Akt) was “abrogates in part” and the “BCR/ABL activity and expression” value (BCR/ABL) was “restored”.
In the case of `O.O.O.O.O.O.O.O.O.O=C([O-])[C@@H]1[O][Sb]2([O-])([O][Sb]34([OH])[O][C@H]([C@H](O)CO)[C@H]([O]3)[C@H](C(=O)[O-])[O]4)[O][C@H]([C@H](O)CO)[C@@H]1[O]2.[Na+].[Na+].[Na+]` [sodium stibogluconate], the BCR/ABL phosphorylation (BCR/ABL; SET shRNA- and HA-PP2A-expressing 32D-BCR/ABL cells) was “restored”.
With `Cn1c(=O)c2[nH]cnc2n(C)c1=O` [theophylline] the BCR/ABL expression/activity (BCR/ABL; 100 μM, 24 hr) was “did not affect”.
For butyryl-forskolin, the PP2A activity (PP2A; [6]) was “enhanced”, the BCR/ABL phosphorylation (BCR/ABL; [6]) was “abolished” and the pEC50 (BCR/ABL; imatinib-resistant cells) was 4.60. For the same compound, the pEC50 (BCR/ABL; imatinib-sensitive cells) was 4.74.
With “myristoylated-PKI(14-22)-amide (Myristoyl-SGRTGRRNA-NH2; SMILES CCCCCCCCCCCCCC(=O)N[C@@H](CO)C(=O)NCC(=O)N[C@@H](CCCNC(=N)N)C(=O)N[C@H](C(=O)NCC(=O)N[C@@H](CCCNC(=N)N)C(=O)N[C@@H](CCCNC(=N)N)C(=O)N[C@@H](CC(N)=O)C(=O)N[C@@H](C)C(N)=O)[C@@H](C)O; UniProt P61925 14-22, looked up, fragment)” the “forskolin-induced BCR/ABL downregulation” value (BCR/ABL; 4 μM, 24 hr, with forskolin) was “did not inhibit”.

From US8633161B2, “Therapeutic agents for the treatment of leukemia” (The Ohio State University Research Foundation, priority 2005, dated 2014)
